A short description of test [1]: Compound was tested for its inhibitory activity against DAla-DAla Ligase at 1 mM; No activity. The arrangement: species or system Enterococcus faecalis.
Test [2] concerns Escherichia coli. Nature of the test: Antibacterial activity against Escherichia coli; Inactive. The test is classed as functional, organism-based.
For test [3], the system named is Staphylococcus aureus. Nature of the test: Antibacterial activity against Staphylococcus aureus; Inactive. The format is functional, organism-based.
The nature of test [4]: Compound was tested for its inhibitory activity against DAla-DAla Ligase. The arrangement: species or system Enterococcus faecalis.

Activity calls are given as the source filed them. The calls are words filed in the database; no cut-off is given here.

In the case of `C[C@@H](N)[C@@]1(O)CNC1=O`, the IC50 entry in test [1] is “Not Active”. Also, the outcome in test [2] and in test [3] was inactive.
`N[C@@H]1CONC1=O` [CYCLOSERINE] came in with an IC50 in test [4] of 250 µM.
Turning to `C[C@@H](N)[C@]1(O)CNC1=O`, the IC50 result in test [1] is “Not Active”. Also, the outcome in test [2] and in test [3] was inactive.
For the molecule `CC(N)P(=O)(O)O` (stereo not drawn), in test [4], half-maximal inhibition (IC50) was put at 930 µM.

For the origin of these results see ChEMBL document CHEMBL1124319, “Synthesis of an analogue of tabtoxinine as a potential inhibitor of D-alanine:D-alanine ligase (ADP forming)” (J Med Chem, 1989).
